Data on three compounds can be found in US11266712B2, “Antimicrobial peptides and methods of using the same” (Riptide Bioscience, Inc., priority 2018, dated 2022).

One test has as its system S. aureus 29213. As to the kind of experiment: Resistance development, 30 serial passages at sub-MIC. The class given is cell-based. The conditions noted are these: after 30 days / 30 serial passages. The method, then:
(§1) Sub-inhibitory concentrations of RP557, gentamicin and clindamycin were incubated with P. aeruginosa 27853 and S. aureus 29213 for 24 hours. Bacteria showing growth in the highest concentration were re-passaged in fresh dilutions containing sub-minimum inhibitory concentration (MIC) levels of each component for 30 consecutive passages.
(§2) FIG. 4A to 4B. […] Sub-inhibitory concentrations of RP557, gentamicin and clindamycin were incubated with P. aeruginosa 27853 and S. aureus 29213 for 24 hours. Bacteria showing growth in the highest concentration were re-passaged in fresh dilutions containing sub-minimum inhibitory concentration (MIC) levels of each component for 30 consecutive passages; means are shown.

The test system of the next test is C. albicans (ATCC 44858). As to the kind of experiment: Rodent model of vulvovaginal candidiasis. The conditions noted are these: rat, oral fluconazole. It is filed as in vivo. How it is done: FIG. 8A to 8B indicates topical treatment of exemplary peptide RP557 reduces rodent vaginal candidiasis. Effects of RP557, miconazole and oral fluconazole in a C. albicans vaginal infection rodent model. On Day 0, rats were inoculated intravaginally with C. albicans. RP557 and miconazole were administered twice daily (FIG. 8A). A separate group received oral fluconazole (FIG. 8B). Further details are provided in the experimental section.
RP557 was effective in eradicating C. albicans in a rodent model of vulvovaginal candidiasis (FIG. 8A-8B).
FIG. 8A to 8B. RP557 topical treatment reduces rodent vaginal candidiasis. Effects of RP557, miconazole and oral fluconazole in the C. albicans (ATCC 44858) vaginal infection rodent model. On Day 0, rats were inoculated intravaginally (IVG) with C. albicans at 1.46×10^7 CFU/rat. RP557 and miconazole at 20 mg/mL were administered IVG at 0.1 mL/rat twice daily at 8 hr intervals starting from 48 hr after infection for 3 days. CPUs were evaluated on Day 5 with limit of detection (LOD) 0.7 CFU/rat. Significant difference, compared to vehicle, determined by one-way ANOVA followed by Dunnett's test (*p<0.05, ****p<0.0001). A separate group receiving oral fluconazole; *p<0.05 versus 0.1 and 10 mg/kg fluconazole.

Another test has as its system P. aeruginosa 27853. As to the kind of experiment: Resistance development, 30 serial passages at sub-MIC. The conditions noted are these: after 30 days / 30 serial passages. It is filed as cell-based. The method, then: as §1, §2

Consider `CCC[C@@H]1C[C@@H](C(=O)N[C@@H]([C@H]2O[C@H](SC)[C@H](O)[C@@H](O)[C@H]2O)[C@H](C)Cl)N(C)C1` [clindamycin], for which the “growth at multiple of the MIC after 30 days” value in the test on S. aureus 29213 is 256 times the minimum inhibitory concentration (MIC). On to `OC(Cn1cncn1)(Cn1cncn1)c1ccc(F)cc1F` [fluconazole], for which the “activity on fungal counts” value with C. albicans (ATCC 44858) is on record as “minimal activity”. gentamicin: in the test on P. aeruginosa 27853, the “growth at multiple of the MIC after 30 days” value was 4096 times the minimum inhibitory concentration (MIC).
